The term IC50 denotes the concentration that inhibits the measured activity by half.

Structures are written as SMILES.

For one test, the target named is full-length human BTK (Homo sapiens (Human), UniProt Q06187). Nature of the test: BTK IC50 Enzyme Assay (microfluidic off-chip mobility shift kinase assay).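 Further: Read-out separates phosphorylated peptide product from substrate by their charge-to-mass difference, with IC50 fitted from log inhibitor concentration against percent enzyme activity.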 The note with it: Btk Enzymatic IC50 Assay, 90 min at 27 C. The format is biochemical.
Sequence of full-length human BTK (Q06187 whole entry): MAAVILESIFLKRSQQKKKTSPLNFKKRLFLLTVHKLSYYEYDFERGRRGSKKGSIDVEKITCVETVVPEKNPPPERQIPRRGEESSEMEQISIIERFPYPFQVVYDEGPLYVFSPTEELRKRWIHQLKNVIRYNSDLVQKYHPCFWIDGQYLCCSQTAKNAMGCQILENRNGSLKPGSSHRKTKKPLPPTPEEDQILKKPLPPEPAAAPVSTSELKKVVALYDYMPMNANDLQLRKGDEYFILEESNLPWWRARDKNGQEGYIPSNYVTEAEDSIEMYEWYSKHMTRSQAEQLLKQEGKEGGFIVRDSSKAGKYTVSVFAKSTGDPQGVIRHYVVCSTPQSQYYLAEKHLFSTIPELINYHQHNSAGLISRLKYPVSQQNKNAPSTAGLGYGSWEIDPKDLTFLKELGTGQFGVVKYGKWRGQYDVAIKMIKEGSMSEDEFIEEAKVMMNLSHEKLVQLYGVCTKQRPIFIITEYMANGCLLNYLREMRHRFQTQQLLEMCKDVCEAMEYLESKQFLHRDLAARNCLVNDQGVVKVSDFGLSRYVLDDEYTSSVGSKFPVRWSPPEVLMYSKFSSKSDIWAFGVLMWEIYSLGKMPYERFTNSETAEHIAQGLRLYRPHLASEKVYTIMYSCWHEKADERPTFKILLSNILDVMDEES
A further test concerns the target Btk (Homo sapiens (Human), UniProt Q06187). Nature of the test: Btk PBMC IC50 Cell Assay (anti-IgM-induced CD69 expression on B cells).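 Further: freshly isolated human PBMCs, IC50 from concentration-response of the share of CD19+ cells expressing CD69 after anti-IgM BCR stimulation.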 To be noted: anti-IgM-induced CD69 expression on CD19 positive cells in human PBMCs. The class given is cell-based.

Sequence of Btk (Q06187 whole entry): as above

On to `Cn1cc(-c2nc3c(-c4ccc5c(c4)CCCC[C@H]5NC(=O)c4noc(C(C)(C)C)n4)ccnc3[nH]2)cn1` [Compound 52, 5-tert-Butyl-[1,2,4]oxadiazole-3-carboxylic acid {(R)-2-[2-(1-methyl-1H-pyrazol-4-yl)-3H-imidazo[4,5-b]pyridin-7-yl]-6,7,8,9-tetrahydro-5H-benzocyclohepten-5-yl}-amide], for which the half-inhibitory concentration (IC50) was < 1 nM at full-length human BTK and 1 to 10 nM at Btk.

Take `Cn1cc(-c2nc3c(-c4ccc5c(c4)CCCC[C@@H]5NC(=O)c4noc(C(C)(C)C)n4)ccnc3[nH]2)cn1` [Compound 53, 5-tert-Butyl-[1,2,4]oxadiazole-3-carboxylic acid {(S)-2-[2-(1-methyl-1H-pyrazol-4-yl)-3H-imidazo[4,5-b]pyridin-7-yl]-6,7,8,9-tetrahydro-5H-benzocyclohepten-5-yl}-amid]: the results for the IC50 on full-length human BTK and on Btk were 1 to 10 nM and 10 to 100 nM, respectively.

Regarding `Cn1cc(-c2nc3c(-c4ccc5c(c4)CCCC[C@H]5NC(=O)c4noc(C5(C)CC5)n4)ccnc3[nH]2)cn1` [Compound 54, 5-(1-Methyl-cyclopropyl)-[1,2,4]oxadiazole-3-carboxylic acid {(R)-2-[2-(1-methyl-1H-pyrazol-4-yl)-3H-imidazo[4,5-b]pyridin-7-yl]-6,7,8,9-tetrahydro-5H-benzocyclohepten-5-yl}-amide], the IC50 is < 1 nM on full-length human BTK and 1 to 10 nM against Btk.

As for `Cn1cc(-c2nc3c(-c4ccc5c(c4)CCCC[C@@H]5NC(=O)c4noc(C5(C)CC5)n4)ccnc3[nH]2)cn1` [Compound 55, 5-(1-Methyl-cyclopropyl)-[1,2,4]oxadiazole-3-carboxylic acid {(S)-2-[2-(1-methyl-1H-pyrazol-4-yl)-3H-imidazo[4,5-b]pyridin-7-yl]-6,7,8,9-tetrahydro-5H-benzocyclohepten-5-yl}-amide], the values for the half-maximal inhibitory concentration (IC50) at full-length human BTK and on Btk were 1 to 10 nM and 10 to 100 nM, respectively.

`Cn1cc(-c2nc3c(-c4ccc5c(c4)CCCC[C@@H]5NC(=O)c4cc(C5(C)CC5)on4)ccnc3[nH]2)cn1` [Compound 57, 5-(1-Methyl-cyclopropyl)-isoxazole-3-carboxylic acid {(S)-2-[2-(1-methyl-1H-pyrazol-4-yl)-3H-imidazo[4,5-b]pyridin-7-yl]-6,7,8,9-tetrahydro-5H-benzocyclohepten-5-yl}-amide]: the figures for the IC50 on full-length human BTK and on Btk were 1 to 10 nM and > 100 nM, respectively.

With `Cc1nn(C(C)C)cc1-c1nc2c(-c3ccc4c(c3)CCCCC4NC(=O)c3noc(C(C)(C)C)n3)ccnc2[nH]1` (stereo not shown) [Compound 58, 5-tert-Butyl-[1,2,4]oxadiazole-3-carboxylic acid {2-[2-(1-isopropyl-3-methyl-1H-pyrazol-4-yl)-3H-imidazo[4,5-b]pyridin-7-yl]-6,7,8,9-tetrahydro-5H-benzocyclohepten-5-yl}-amide], the half-maximal inhibitory concentration (IC50) was < 1 nM on full-length human BTK and 1 to 10 nM against Btk.

With `Cc1nn(C(C)C)cc1-c1nc2c(-c3ccc4c(c3)CCCC[C@H]4NC(=O)c3nc(C4(C)CC4)no3)ccnc2[nH]1` [Compound 59, 3-(1-Methyl-cyclopropyl)-[1,2,4]oxadiazole-5-carboxylic acid {(R)-2-[2-(1-isopropyl-3-methyl-1H-pyrazol-4-yl)-3H-imidazo[4,5-b]pyridin-7-yl]-6,7,8,9-tetrahydro-5H-benzocyclohepten-5-yl}-amide], the 50% inhibitory concentration (IC50) on full-length human BTK is < 1 nM; against Btk it was 1 to 10 nM.

For the compound `Cc1nn(C(C)C)cc1-c1nc2c(-c3ccc4c(c3)CCCC[C@@H]4NC(=O)c3nc(C4(C)CC4)no3)ccnc2[nH]1` [Compound 60, 3-(1-Methyl-cyclopropyl)-[1,2,4]oxadiazole-5-carboxylic acid {(S)-2-[2-(1-isopropyl-3-methyl-1H-pyrazol-4-yl)-3H-imidazo[4,5-b]pyridin-7-yl]-6,7,8,9-tetrahydro-5H-benzocyclohepten-5-yl}-amide], the IC50 at full-length human BTK is 1 to 10 nM; at Btk, 10 to 100 nM.

The values above are taken from patent US12415803B2, “Fused imidazopyridines as reversible inhibitors of Brutons Tyrosine Kinase (BTK)” (Merck Patent GmbH, priority 2018, dated 2025).
